Patent US7880010B2, “Crystalline forms of a dimethylphenyl compound” (Theravance, Inc., priority 2006, dated 2011)

What was measured:
Assay type in all cases: cell-based
hM2 receptor = target: T1, hM2 receptor (Homo sapiens, UniProt P08172); assay: Blockade of agonist-mediated inhibition of cAMP accumulation (Assay A); details: CHO-K1 cells expressing the hM2 receptor
T1 construct: expressed in transfected cells; host or cells: CHO / CHO-K1
T1 sequence (P08172 1-466): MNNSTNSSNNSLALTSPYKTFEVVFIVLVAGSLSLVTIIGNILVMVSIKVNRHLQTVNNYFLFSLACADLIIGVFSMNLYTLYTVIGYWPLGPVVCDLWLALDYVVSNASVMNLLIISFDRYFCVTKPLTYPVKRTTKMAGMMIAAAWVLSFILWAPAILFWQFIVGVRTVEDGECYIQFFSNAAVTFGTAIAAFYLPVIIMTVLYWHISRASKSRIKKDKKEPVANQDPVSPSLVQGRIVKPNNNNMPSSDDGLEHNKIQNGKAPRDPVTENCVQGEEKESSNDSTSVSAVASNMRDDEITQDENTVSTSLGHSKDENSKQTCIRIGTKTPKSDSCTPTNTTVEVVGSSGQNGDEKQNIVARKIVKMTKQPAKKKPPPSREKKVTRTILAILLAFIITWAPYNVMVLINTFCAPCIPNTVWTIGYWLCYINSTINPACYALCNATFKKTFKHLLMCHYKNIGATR
Description: In this assay, the functional potency of a test compound as an antagonist for the hM2 receptor was determined by measuring the ability of the test compound to block oxotremorine-inhibition of forskolin-mediated cAMP accumulation in CHO-K1 cells expressing the hM2 receptor. cAMP assays were performed in a radioimmunoassay format using the Flashplate Adenylyl Cyclase Activation Assay System with ^125I-cAMP (NEN SMP004B, PerkinElmer Life Sciences Inc., Boston, Mass.), according to the manufacturer's instructions. Cells were rinsed once with dPBS and lifted with Trypsin-EDTA solution (0.05% trypsin/0.53 mM EDTA) as described in the Cell Culture and Membrane Preparation section above. The detached cells were washed twice by centrifugation at 650×g for five minutes in 50 mL dPBS. The cell pellet was then re-suspended in 10 mL dPBS, and the cells were counted with a Coulter Z1 Dual Particle Counter (Beckman Coulter, Fullerton, Calif.). […]
Reactions were incubated for 10 minutes at 37° C. and stopped by addition of 100 μL ice-cold detection buffer. Plates were sealed, incubated overnight at room temperature and counted the next morning on a PerkinElmer TopCount liquid scintillation counter (PerkinElmer Inc., Wellesley, Mass.). The amount of cAMP produced (pmol/well) was calculated based on the counts observed for the samples and cAMP standards, as described in the manufacturer's user manual. […]

[1] = target: T2, human β1 adrenergic receptor (Homo sapiens, UniProt P08588); assay: Whole-cell cAMP Flashplate assay, heterologously expressed receptor; details: HEK-293 cells
T2 construct: expressed in transfected cells; host or cells: HEK-293
T2 sequence (P08588 whole entry): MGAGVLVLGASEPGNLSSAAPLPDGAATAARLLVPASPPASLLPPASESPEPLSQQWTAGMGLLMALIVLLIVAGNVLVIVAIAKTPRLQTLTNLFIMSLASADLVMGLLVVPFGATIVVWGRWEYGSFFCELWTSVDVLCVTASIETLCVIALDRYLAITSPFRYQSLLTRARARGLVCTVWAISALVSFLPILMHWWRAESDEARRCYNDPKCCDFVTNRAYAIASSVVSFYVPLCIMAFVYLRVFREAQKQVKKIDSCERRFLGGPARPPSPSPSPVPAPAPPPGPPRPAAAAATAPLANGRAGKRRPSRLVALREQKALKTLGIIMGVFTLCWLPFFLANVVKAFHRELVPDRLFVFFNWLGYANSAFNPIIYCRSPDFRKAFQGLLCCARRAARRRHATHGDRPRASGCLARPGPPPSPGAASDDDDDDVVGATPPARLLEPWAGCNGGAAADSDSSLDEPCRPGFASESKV
Description: (§1) cAMP assays were performed in a radioimmunoassay format using the Flashplate Adenylyl Cyclase Activation Assay System with [^125I]-cAMP (NEN SMP004, PerkinElmer Life Sciences Inc., Boston, Mass.), according to the manufacturers instructions. For the determination of β1 and β2 […], […] HEK-293 cell lines stably expressing cloned human, β1 and β2 receptors were grown to near confluency in DMEM supplemented with 10% FBS and Geneticin (500 μg/mL). For the determination β3 receptor agonist potency (EC50), CHO-K1 cell line stably expressing cloned human or β3 adrenergic receptors was grown to near confluency in Hams F-12 media supplemented with 10% FBS and Geneticin (250 μg/mL). Cells were rinsed with PBS and detached in dPBS (Dulbecco's Phosphate Buffered Saline, without CaCl2 and MgCl2) containing 2 mM EDTA or Trypsin-EDTA solution (0.05% trypsin/0.53 mM EDTA). After counting cells in Coulter cell counter, cells were pelleted by centrifugation at 1,000 rpm and re-suspended in stimulation buffer containing IBMX (PerkinElmer Kit) pre-warmed to room temperature to a concentration of 1.6×10^6 to 2.8×10^6 cells/mL. About 40,000 to 80,000 cells per well were used in this assay. Test compounds (10 mM in DMSO) were diluted into PBS containing 0.1% BSA in Beckman Biomek-2000 and tested at 11 different concentrations ranging from 100 μM to 1 pM. Reactions were incubated for 10 min at 37° C. and stopped by adding 100 μL of cold detection buffer containing [^125I]-cAMP (NEN SMP004, PerkinElmer Life Sciences, Boston, Mass.). The amount of cAMP produced (pmol/well) was calculated based on the counts observed for the samples and cAMP standards as described in the manufacturer's user manual. Data were analyzed by nonlinear regression analysis with the GraphPad Prism Software package (GraphPad Software, Inc., San Diego, Calif.) with the sigmoidal equation. The Cheng-Prusoff equation (Cheng Y, and Prusoff W H., Biochemical Pharmacology, 1973, 22, 23, 3099-108) was used to calculate the […] values.

[2] = target: T3, human β2 adrenergic receptor (Homo sapiens, UniProt P07550); assay: as above; details: HEK-293 cells
T3 construct: expressed in transfected cells; host or cells: HEK-293
T3 sequence (P07550 whole entry): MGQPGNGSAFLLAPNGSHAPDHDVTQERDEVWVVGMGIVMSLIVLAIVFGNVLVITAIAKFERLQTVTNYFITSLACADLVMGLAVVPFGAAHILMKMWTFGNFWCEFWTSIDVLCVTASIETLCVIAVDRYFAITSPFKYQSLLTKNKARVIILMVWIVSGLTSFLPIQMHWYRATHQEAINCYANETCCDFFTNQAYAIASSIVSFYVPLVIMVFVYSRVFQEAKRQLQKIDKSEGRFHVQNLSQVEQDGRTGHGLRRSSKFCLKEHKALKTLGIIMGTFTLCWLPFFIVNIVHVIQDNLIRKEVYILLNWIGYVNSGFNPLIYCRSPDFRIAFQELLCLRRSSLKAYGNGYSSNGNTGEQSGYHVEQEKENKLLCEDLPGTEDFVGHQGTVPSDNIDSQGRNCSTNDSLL
Description: as §1

[3] = target: T4, human β3 adrenergic receptor (Homo sapiens, UniProt P13945); assay: as above; details: CHO-K1 cells
T4 construct: expressed in transfected cells; host or cells: CHO / CHO-K1
T4 sequence (P13945 whole entry): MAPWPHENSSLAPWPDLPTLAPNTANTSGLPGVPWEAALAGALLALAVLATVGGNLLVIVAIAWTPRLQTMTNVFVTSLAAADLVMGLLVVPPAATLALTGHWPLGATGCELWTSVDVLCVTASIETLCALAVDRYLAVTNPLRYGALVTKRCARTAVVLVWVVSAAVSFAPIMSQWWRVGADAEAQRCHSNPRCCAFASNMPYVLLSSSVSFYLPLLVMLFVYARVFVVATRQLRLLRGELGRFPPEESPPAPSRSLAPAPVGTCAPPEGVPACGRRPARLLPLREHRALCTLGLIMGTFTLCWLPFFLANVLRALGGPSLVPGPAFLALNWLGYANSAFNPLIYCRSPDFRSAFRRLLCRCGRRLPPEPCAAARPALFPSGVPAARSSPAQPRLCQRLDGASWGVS
Description: as §1

Kobs for blockade of oxotremorine-inhibition of forskolin-mediated cAMP accumulation (hM2 receptor): less than 10 nM | EC50 [1]: ~30 nM | EC50 [2]: < 10 nM | EC50 [3]: > 700 nM
SMILES: Cc1cc(NC(=O)CCN2CCC(OC(=O)Nc3ccccc3-c3ccccc3)CC2)c(C)cc1CNC[C@H](O)c1ccc(O)c(NC=O)c1 [compound of formula I, biphenyl-2-ylcarbamic acid 1-[2-(4-{[(R)-2-(3-formylamino-4-hydroxyphenyl)-2-hydroxyethylamino]methyl}-2,5-dimethylphenylcarbamoyl)ethyl]-piperidin-4-yl ester]
